Experimental data reported in US20230034584A1, “INHIBITORS OF SHP2” (Bayer Aktiengesellschaft, priority 2019, published 2023).
Like-named read-outs stand apart in the source and are kept apart here.

Assays:
[1] = test system: ERK1/2 Thr202/Tyr204-phosphorylation in human renal proximal tubular epithelial cells (RPTEC); test: Phospho-ERK cellular assay (HTRF); format: cell-based; settings: read-out: IC50, inhibition of ERK phosphorylation
Description: Cellular pERK assay was used to determine compound activity on modulating ERK1/2 Thr202/Tyr204-phosphorylation in renal cells. […] The intracellular levels of ERK1/2 phosphorylated at Thr202/Tyr204 were quantified with Advanced Phospho-ERK HTRF assay (Cisbio, Cat. #64AERPEH). Compound incubation was terminated by addition of 16 μL lysis buffer (Cisbio) and 4 μL pERK HTRF® antibody cocktail (Cisbio).

[2] = test system: C57/Bl6J mice with UUO; test: Unilateral ureteral obstruction (UUO) mouse model, 10 days, fibrosis markers; format: in vivo; settings: for αSMA-positive area within the obstructed kidney / Collagen content (Sirius Red/Fast Green staining) of obstructed kidney: ten days, histology
Description: Experiments indicative for chronic kidney diseases were carried out in unilateral ureteral obstruction (UUO) mouse models (examples 1). Such treatment results in the short version of the UUO model (3 days) in pronounced macrophage infiltration into the affected kidney, which is one of the triggers for the subsequent interstitial fibrosis and nephron damage. Collagen expression is increased in UUO after 10 days as a result of renal fibrosis, while alpha-smooth muscle actin (ASMA) expression is increased as a result of reduced renal function, or fibroblast expansion (see Chevalier et al, 2009). The study was performed on male C57/Bl6J mice (age: 7-8 weeks) that were obtained from Charles River. Mice were anesthetized with continuous inhaled isoflurane, and the left ureter was exposed via a mid-abdominal incision. The mid-ureter was obstructed by two point ligation with silk sutures. The SHAM-operated mouse (n=6) underwent the same procedure except for the obstruction of the left ureter. The mice were randomized into four groups (n=10 each group): UUO plus vehicle (10% EtOH/40% PEG/50% water), UUO plus 3 [mg/kg] SHP099, UUO plus 30 [mg/kg] SHP099. Mice were dosed bidaily with vehicle and SHP099. The forth group of mice with UUO was treated once daily with Tivozanib (technical control). At ten days after surgery, mice were euthanized, and kidneys were collected and divided in two parts. One part was snap-frozen in liquid nitrogen for RNA analysis. The other part was stored in Davidson's fixative for the preparation of histological sections. Total RNA was isolated from parts of harvested kidneys. Kidney tissue was homogenized and RNA was obtained and transcribed to cDNA. Using TaqMan real time PCR renal mRNA expression of fibrotic markers was analyzed in kidney tissues. For the assessment of fibrosis on the protein level paraffin tissue sections were stained with alpha-smooth muscle actin (αSMA) and Sirius Red/Fast Green Collagen Stainings using standard procedures. Quantitative measurements of alpha-smooth muscle actin (αSMA)-positive as well as Sirius Red (Collagen) positive areas within the kidneys were obtained by computer image analysis using the Axio Scan Z1 (Zeiss) microscope and the Zen software. All data are expressed as means±S.D. Differences between groups were analyzed by one-way ANOVA with Dunnett's corrections for multiple comparisons. Statistical significance was defined as p<0.05.

[3] = test system: pERK levels in the injured kidneys; test: Phospho-ERK quantification in kidney lysates (HTRF), UUO mice; format: in vivo, mouse; settings: 1 and 10 mg/kg once daily p.o.
Description: Kidney tissue from animal studies was homogenized in supplemented HTRF lysis buffer (Cisbio). The volume of lysis buffer is adjusted at 1 mL per 100 mg tissue. Homogenization was performed with […] steel beads in Mixer Mill (Retsch, MM300) for 2.5 min/25 Hz, followed by sample cooling on ice. The protein concentration in tissue lysates was adjusted to 0.1-0.5 mg/mL and HTRF pERK assay performed as described above.
(§1) The study was performed on male C57/Bl6J mice (age: 7-8 weeks) that were obtained from Charles River. Mice were anesthetized with continuous inhaled isoflurane, and the left ureter was exposed via a mid-abdominal incision. The mid-ureter was obstructed by two point ligation with silk sutures. The SHAM-operated mouse (n=6) underwent the same procedure except for the obstruction of the left ureter. […] As a placebo, a solution without active ingredient was used (group 2), and a sham operated group with unligated kidney was used as a […] (group 1)

[4] = log D; format: physicochemical
[5] = test system: C57/Bl6J mice with UUO; test: UUO mouse model, macrophage infiltration by flow cytometry (CD45, F4/80); format: in vivo; settings: 1 and 10 mg/kg once daily p.o.
Description: Experiments indicative for chronic kidney diseases were carried out in unilateral ureteral obstruction (UUO) mouse models (examples 1). Such treatment results in the short version of the UUO model (3 days) in pronounced macrophage infiltration into the affected kidney, which is one of the triggers for the subsequent interstitial fibrosis and nephron damage. Collagen expression is increased in UUO after 10 days as a result of renal fibrosis, while alpha-smooth muscle actin (ASMA) expression is increased as a result of reduced renal function, or fibroblast expansion (see Chevalier et al, 2009).
as §1
The infiltration of macrophages in response to the renal injury was measured in a flow cytometry assay with detection antibodies binding to the pan-leukocyte marker CD45, as well as to the macrophage-specific antigen. F4/80.

[6] = test system: MRL/lpr mice; settings: MRL/lpr mice treated with the SHP2 inhibitor; cited from earlier work
[7] = test system: 20 other PTPs; settings: literature value; cited from earlier work
[8] = human proximal tubular epithelial cells (immortalized RPTEC), pERK HTRF
[9] = 3 and 30 mg/kg bidaily, ten days after surgery, TaqMan PCR

Work on `C[C@@H]1OCC2(CCN(c3cnc(Sc4ccnc(N)c4Cl)c(N)n3)CC2)[C@@H]1N` [TNO-155, (3S,4S)-8-(6-amino-5-((2-amino-3-chloropyridin-4-yl)thio)pyrazin-2-yl)-3-methyl-2-oxa-8-azaspiro[4.5]decan-4-amine] yielded an IC50 [1, 8] of 0.0464 µM.
For `CC1(N)CCN(c2cnc(-c3cccc(Cl)c3Cl)c(N)n2)CC1` [SHP099], the IC50 [1, 8] was 0.306 µM, the “αSMA-positive area within the obstructed kidney” value ([2]; 3 mg/kg bidaily) was “significant reduction” and the “collagen RNA expression in kidney” value [2, 9] was “dose-dependent reduction”. The “αSMA RNA expression in kidney” value [2, 9] was “dose-dependent reduction” and the “Collagen content (Sirius Red/Fast Green staining) of obstructed kidney” value ([2]; both dosages (3 and 30 mg/kg bidaily)) was “dose dependently and significantly reduced”.
For `Cc1nc(N2CCC3(CC2)CO[C@@H](C)[C@H]3N)c(CO)nc1-c1cccc(Cl)c1Cl` [RMC-4550, [3-[(3S,4S)-4-amino-3-methyl-2-oxa-8-azaspiro[4.5]decan-8-yl]-6-(2,3-dichlorophenyl)-5-methylpyrazin-2-yl}methanol], the “pERK levels in the injured kidneys” value [3] was “dose-dependently reduced”, the IC50 ([1]; Homo sapiens, RPTEC) was 0.0126 µM and the logD [4] was 2.2. For the same molecule, the “macrophage infiltration into the kidney” value [5] was “significant, dose-dependent reduction”.
In the case of `COc1cc2nccc(Oc3ccc(NC(=O)Nc4cc(C)on4)c(Cl)c3)c2cc1OC` [Tivozanib], the “Collagen content (Sirius Red/Fast Green staining) of obstructed kidney” value ([2]; once daily (technical control)) is reported as “significantly reduced” and the “αSMA-positive area within the obstructed kidney” value ([2]; once daily (technical control)) is reported as “significantly reduced”.
For `Cn1c(-c2cccc(NC(=O)C(=O)Nc3ccc(-c4ccsc4)cc3)c2)c(I)c2cc(C(=O)O)c(O)cc21` [11a-1], the “progression of kidney disease in SLE-prone mice” value [6] is given as “prevented the progression of kidney disease” and the “selectivity against any of 20 other PTPs” value [7] is given as greater than 5 fold.
